In patent US5478841A, “Fluorinated quinolones, process for their preparation and pharmaceutical preparations containing same” (Bouchara S.A., priority 1992, dated 1995):
Values after ≈ are worked out from the molar mass of the structure shown.

Key:
S. aureus ATCC 25923 = test: MIC/MBC, microdilution in Mueller-Hinton broth, S. aureus ATCC 25923; format: cell-based; conditions: Staphylococcus aureus; for MIC: ATCC25923, 18 h at 37° C., about 10^6 bacteria/ml, read-out: MINIMAL INHIBITORY CONCENTRATION (MIC); for MBC: ATCC25923, read-out: MINIMAL BACTERICIDAL CONCENTRATION (MBC)
Method: (§1) The products were tested vis-a-vis 7 reference strains
Straphylococcus aureus ATCC 25923
(§2) The preparation of these mother solutions produced, varied according to the molecules as a function of solubility criteria.
(§3) The inoculation is carried out by adding to each cupule 10 μl of a dilution in physiological water of an 18 hour broth of heart/brain broth such that each cupule contains about 10^6 bacteria/ml.
(§4) The minimal inhibitory concentration is read as the first concentration of antibiotic giving no culture which is macroscopically visible after incubation for 18 hours at 37° C.

E. coli ATCC 25922 = test: MIC/MBC, microdilution in Mueller-Hinton broth, E. coli; format: cell-based; conditions: Escherichia coli; for MIC: ATCC25922, 18 h at 37° C., about 10^6 bacteria/ml, read-out: MINIMAL INHIBITORY CONCENTRATION (MIC); for MBC: ATCC25922, read-out: MINIMAL BACTERICIDAL CONCENTRATION (MBC)
Method: as §1
Escherichia coli ATCC 25922
as §2, §3, §4

S. faecalis ATCC 25922 = test: MIC/MBC, microdilution in Mueller-Hinton broth, S. faecalis; format: cell-based, Streptococcus faecalis; conditions: Enterococcus faecalis, ATCC25922, 18 h, read-out: MINIMAL INHIBITORY CONCENTRATION (MIC)
Method: (§5) The products were tested vis-a-vis 7 reference strains […]
as §2, §3, §4

S. faecalis = test: as above; format: cell-based, Streptococcus faecalis; conditions: Enterococcus faecalis, ATCC25922, read-out: MINIMAL BACTERICIDAL CONCENTRATION (MBC)
Method: as §5, §2, §3, §4

P. aeruginosa ATCC 22853 = test: MIC/MBC, microdilution in Mueller-Hinton broth, P. aeruginosa; format: cell-based; conditions: Pseudomonas aeruginosa; for MIC: ATCC22853, 18 h, read-out: MINIMAL INHIBITORY CONCENTRATION (MIC); for MBC: ATCC22853, read-out: MINIMAL BACTERICIDAL CONCENTRATION (MBC)
Method: as §1
Pseudomonas aeruginosa ATCC 22853
as §2, §3, §4

[1] = tested on: Acinetobacter Baumanii ATCC 17904; test: MIC/MBC, microdilution in Mueller-Hinton broth, Acinetobacter; format: cell-based; conditions: Acinetobacter baumannii
Method: as §1
Acinetobacter calcoaceticus variety anitratum ATCC 17903
as §2, §3, §4

S. aureus CB-951 = test: MIC/MBC, microdilution in Mueller-Hinton broth, S. aureus CB-951; format: cell-based; conditions: Staphylococcus aureus, CB951, S. aureus CB-951, methicillino resistant, pefloxacino resistant
Method: as §1
Staphylococcus aureus CB 951
as §2, §3, §4

solubility in water = format: physicochemical; conditions: hydrochloride, pale yellow crystals

Compound	MIC (S. aureus ATCC 25923) [µg/mL]	MBC (S. aureus ATCC 25923) [µg/mL]	MIC (E. coli ATCC 25922) [µg/mL]	MBC (E. coli ATCC 25922) [µg/mL]	MIC (S. faecalis ATCC 25922) [µg/mL]	MBC (S. faecalis) [µg/mL]	MIC (P. aeruginosa ATCC 22853) [µg/mL]	MBC (P. aeruginosa ATCC 22853) [µg/mL]	MIC ([1]; ATCC17904, 18 h, read-out: MINIMAL INHIBITORY CONCENTRATION (MIC)) [µg/mL]	MBC ([1]; ATCC17904, read-out: MINIMAL BACTERICIDAL CONCENTRATION (MBC)) [µg/mL]	MIC (S. aureus CB-951; 18 h at 37° C., about 10^6 bacteria/ml, read-out: MINIMAL INHIBITORY CONCENTRATION (MIC)) [µg/mL]	MBC (S. aureus CB-951; read-out: MINIMAL BACTERICIDAL CONCENTRATION (MBC)) [µg/mL]	solubility in water (solubility in water)
NCC1CCN(c2cc3c(cc2F)c(=O)c(C(=O)O)cn3C2CC2)CC1 [Compound 5, 6-fluoro-1-cyclopropyl-7-((4-aminomethyl)-1-piperidinyl)-quinolone-3-carboxylic acid]	0.25 (≈ 0.696 µM)	0.5 (≈ 1.39 µM)	0.25 (≈ 0.696 µM)	0.5 (≈ 1.39 µM)									
CC(C)n1cc(C(=O)O)c(=O)c2cc(F)c(N3CCC(CN)CC3)c(F)c21 [Compound 7, 6,8-difluoro-1-isopropyl-7-((4-aminomethyl)-1-piperidinyl)-quinolone-3-carboxylic acid]	3.2 (≈ 8.43 µM)	6.4 (≈ 16.9 µM)	1.6 (≈ 4.22 µM)	1.6 (≈ 4.22 µM)	3.2 (≈ 8.43 µM)	25.6 (≈ 67.5 µM)	25.6 (≈ 67.5 µM)	> 51.2					
NCC1CCN(c2c(F)cc3c(=O)c(C(=O)O)cn(C4CC4)c3c2F)CC1 [Compound 1, 6,8-difluoro-7-[(4-aminomethyl)-1-piperdinyl]-1-(1-cyclopropyl)-4-oxo-1,4-dihydroquinolinyl-3-carboxylic acid]	0.06 (≈ 0.159 µM)	0.06 (≈ 0.159 µM)	2 (≈ 5.3 µM)	4 (≈ 10.6 µM)	1 (≈ 2.65 µM)	1 (≈ 2.65 µM)	> 16	> 16	0.03 (≈ 0.0795 µM)	0.03 (≈ 0.0795 µM)	0.25 (≈ 0.662 µM)	0.25 (≈ 0.662 µM)	moderately soluble in water
